Source: PubChem BioAssay AID224 (DTP/NCI, 2004)
“And” between values parts separate entries of the source, which are not always exact repeats. Equal values may be shown once. Toxic doses and inconclusive results are not listed.

Tested on: P335 leukemia ip, BDF1 mice, survival T/C %
Test: NCI In Vivo Anticancer Drug Screen. Data for tumor model P335 Leukemia (intraperitoneal) in B6D2F1 (BDF1) mice
Conditions: endpoint: mean survival time, higher = longer survival
Experimental: The antitumor activity of compounds was measured in mice bearing transplantable tumors. Survival or tumor size were measured and the results are expressed as the measurement made in the treated group (T) divided by the measurement made in the vehicle treated control group (C). The tumor model used in this assay is P335 Leukemia (intraperitoneal) in B6D2F1 (BDF1) mice

[1] = dose: 9.4 mg/kg/injection, schedule: Q01DX Z (ip), vehicle: carboxymethylcellulose (CMC)
[2] = dose: 18.75 mg/kg/injection, schedule: Q01DX Z (ip), vehicle: carboxymethylcellulose (CMC)
[3] = dose: 31.25 mg/kg/injection, schedule: Q01DX Z (sc), vehicle: steriod suspending solution
[4] = dose: 25.0 mg/kg/injection, schedule: Q01DX Z (ip), vehicle: carboxymethylcellulose (CMC)
[5] = dose: 50.0 mg/kg/injection, schedule: Q01DX Z (ip), vehicle: carboxymethylcellulose (CMC)

CCN(CC)c1ccc2cc3ccc(=[N+](CC)CC)cc-3oc2c1
T/C (dose: 0.31 mg/kg/injection, schedule: Q01DX Z (ip), vehicle: carboxymethylcellulose (CMC)): 87 % of control | T/C (dose: 0.62 mg/kg/injection, schedule: Q01DX Z (ip), vehicle: carboxymethylcellulose (CMC)): 97 % of control and 98 % of control | T/C (dose: 1.25 mg/kg/injection, schedule: Q01DX Z (ip), vehicle: carboxymethylcellulose (CMC)): 108 % of control and 123 % of control

CC(=O)O[C@]1(C(C)=O)CC[C@H]2[C@@H]3C[C@H](C)C4=CC(=O)C=C[C@]4(C)[C@@]3(F)[C@@H](O)C[C@@]21C
T/C (dose: 0.63 mg/kg/injection, schedule: Q01DX Z (sc), vehicle: steriod suspending solution): 107 % of control | T/C (dose: 1.25 mg/kg/injection, schedule: Q01DX Z (sc), vehicle: steriod suspending solution): 98 % of control | T/C (dose: 2.5 mg/kg/injection, schedule: Q01DX Z (sc), vehicle: steriod suspending solution): 103 % of control | T/C (dose: 5.0 mg/kg/injection, schedule: Q01DX Z (sc), vehicle: steriod suspending solution): 90 % of control | T/C (dose: 10.0 mg/kg/injection, schedule: Q01DX Z (sc), vehicle: steriod suspending solution): 119 % of control | T/C (dose: 20.0 mg/kg/injection, schedule: Q01DX Z (sc), vehicle: steriod suspending solution): 87 % of control

C[C@H](N)C(=O)N[C@@H]1[C@H]2C(=C(O)C[C@@H](O)[C@@H]2O)C(=O)O[C@@H]1C
T/C (dose: 23.43 mg/kg/injection, schedule: Q01DX Z (ip), vehicle: saline): 114 % of control | T/C (dose: 187.5 mg/kg/injection, schedule: Q01DX Z (ip), vehicle: saline): 168 % of control | T/C (dose: 375.0 mg/kg/injection, schedule: Q01DX Z (ip), vehicle: saline): 151 % of control and 182 % of control | T/C (dose: 750.0 mg/kg/injection, schedule: Q01DX Z (ip), vehicle: saline): 191 % of control

C1CN1c1nc(N2CC2)nc(N2CC2)n1
T/C (dose: 0.9 micrograms/kg/injection, schedule: Q01DX Z (ip), vehicle: saline): 87 % of control | T/C (dose: 1.9 micrograms/kg/injection, schedule: Q01DX Z (ip), vehicle: saline): 90 % of control | T/C (dose: 7.8 micrograms/kg/injection, schedule: Q01DX Z (ip), vehicle: saline): 90 % of control and 114 % of control

O=c1[nH]c(=O)n(C2CC(O)C(CO)O2)cc1I (stereo not drawn)
T/C (dose: 225.0 mg/kg/injection, schedule: Q01DX Z (ip), vehicle: carboxymethylcellulose (CMC)): 93 % of control | T/C (dose: 450.0 mg/kg/injection, schedule: Q01DX Z (ip), vehicle: carboxymethylcellulose (CMC)): 104 % of control

Nc1nc(SCc2ccccc2)c2[nH]cnc2n1
T/C (dose: 2.35 mg/kg/injection, schedule: Q01DX Z (ip), vehicle: carboxymethylcellulose (CMC)): 87 % of control | T/C [1]: 108 % of control | T/C [2]: 87 % of control

CCn1cnc2c(=S)nc[nH]c21
T/C (dose: 15.6 mg/kg/injection, schedule: Q01DX Z (ip), vehicle: carboxymethylcellulose (CMC)): 96 % of control

CC[C@@H](c1ccc(O)cc1)[C@@H](CC)c1ccc(O)cc1
T/C (dose: 16.0 mg/kg/injection, schedule: Q01DX Z (sc), vehicle: steriod suspending solution): 96 % of control | T/C [3]: 93 % of control | T/C (dose: 125.0 mg/kg/injection, schedule: Q01DX Z (sc), vehicle: steriod suspending solution): 96 % of control | T/C (dose: 500.0 mg/kg/injection, schedule: Q01DX Z (sc), vehicle: steriod suspending solution): 104 % of control | T/C (dose: 1000.0 mg/kg/injection, schedule: Q01DX Z (sc), vehicle: steriod suspending solution): 95 % of control

O=C(Nc1ccc(C2=NCCCN2)cc1)c1ccc(NC(=O)c2ccc(C3=NCCCN3)cc2)cc1
T/C (dose: 4.0 mg/kg/injection, schedule: Q01DX Z (ip), vehicle: carboxymethylcellulose (CMC)): 168 % of control | T/C (dose: 8.0 mg/kg/injection, schedule: Q01DX Z (ip), vehicle: carboxymethylcellulose (CMC)): 176 % of control | T/C (dose: 16.0 mg/kg/injection, schedule: Q01DX Z (ip), vehicle: carboxymethylcellulose (CMC)): 108 % of control

CSc1ncnc2c1ncn2C1OC(CO)C(O)C1O (stereo not drawn)
T/C (dose: 3.1 mg/kg/injection, schedule: Q01DX Z (ip), vehicle: carboxymethylcellulose (CMC)): 93 % of control | T/C (dose: 6.25 mg/kg/injection, schedule: Q01DX Z (ip), vehicle: carboxymethylcellulose (CMC)): 110 % of control | T/C [4]: 179 % of control | T/C [5]: 104 % of control

C[C@]12CC[C@H](OC3OC(CO)C(O)C(O)C3O)C[C@H]1CC[C@@H]1[C@@H]2CC[C@]2(C)[C@@H](C3=CCOC3=O)CC[C@]12O (stereo partly drawn)
T/C (dose: 0.04 mg/kg/injection, schedule: Q01DX Z (ip), vehicle: saline): 97 % of control | T/C (dose: 0.08 mg/kg/injection, schedule: Q01DX Z (ip), vehicle: saline): 96 % of control | T/C (dose: 0.16 mg/kg/injection, schedule: Q01DX Z (ip), vehicle: saline): 92 % of control | T/C (dose: 0.31 mg/kg/injection, schedule: Q01DX Z (ip), vehicle: saline): 86 % of control

CC[C@]1(O)C[C@H]2CN(CCc3c([nH]c4ccccc34)[C@@](C(=O)OC)(c3cc4c(cc3OC)N(C=O)[C@H]3[C@@](O)(C(=O)OC)[C@H](OC(C)=O)[C@]5(CC)C=CCN6CC[C@]43[C@@H]65)C2)C1
T/C (dose: 0.12 mg/kg/injection, schedule: Q01DX Z (ip), vehicle: water): 234 % of control and 101 % of control and 107 % of control | T/C (dose: 0.5 mg/kg/injection, schedule: Q01DX Z (ip), vehicle: water): 89 % of control and 90 % of control | T/C (dose: 1.0 mg/kg/injection, schedule: Q01DX Z (ip), vehicle: water): 86 % of control

CCCCCCCCCCCCNCCCCCCCCCCCC
T/C (dose: 3.75 mg/kg/injection, schedule: Q01DX Z (ip), vehicle: carboxymethylcellulose (CMC)): 91 % of control | T/C (dose: 7.5 mg/kg/injection, schedule: Q01DX Z (ip), vehicle: carboxymethylcellulose (CMC)): 115 % of control | T/C (dose: 15.0 mg/kg/injection, schedule: Q01DX Z (ip), vehicle: carboxymethylcellulose (CMC)): 92 % of control | T/C (dose: 30.0 mg/kg/injection, schedule: Q01DX Z (ip), vehicle: carboxymethylcellulose (CMC)): 88 % of control

O=NN(CCCl)C(=O)NCCCl
T/C (dose: 16.0 mg/kg/injection, schedule: Q01DX Z (ip), vehicle: saline): 95 % of control

NC(Cc1ccc(N(CCCl)CCCl)cc1)C(=O)O (stereo not drawn)
T/C (dose: 2.5 mg/kg/injection, schedule: Q01DX Z (ip), vehicle: carboxymethylcellulose (CMC)): 87 % of control | T/C (dose: 5.0 mg/kg/injection, schedule: Q01DX Z (ip), vehicle: carboxymethylcellulose (CMC)): 94 % of control

O=C1CCC(N2C(=O)c3ccccc3C2=O)C(=O)N1 (stereo not drawn)
T/C [1]: 92 % of control | T/C [2]: 86 % of control and 97 % of control | T/C (dose: 37.5 mg/kg/injection, schedule: Q01DX Z (ip), vehicle: carboxymethylcellulose (CMC)): 88 % of control and 90 % of control and 119 % of control | T/C (dose: 75.0 mg/kg/injection, schedule: Q01DX Z (ip), vehicle: carboxymethylcellulose (CMC)): 100 % of control and 102 % of control | T/C (dose: 150.0 mg/kg/injection, schedule: Q01DX Z (ip), vehicle: carboxymethylcellulose (CMC)): 88 % of control and 98 % of control | T/C (dose: 300.0 mg/kg/injection, schedule: Q01DX Z (ip), vehicle: carboxymethylcellulose (CMC)): 86 % of control

C[C@@H]1C[C@@H]([C@H](O)CC2CC(=O)NC(=O)C2)C(=O)[C@@H](C)C1
T/C (dose: 0.78 mg/kg/injection, schedule: Q01DX Z (ip), vehicle: water): 113 % of control | T/C (dose: 1.56 mg/kg/injection, schedule: Q01DX Z (ip), vehicle: water): 106 % of control and 112 % of control | T/C (dose: 3.12 mg/kg/injection, schedule: Q01DX Z (ip), vehicle: water): 89 % of control | T/C (dose: 6.25 mg/kg/injection, schedule: Q01DX Z (ip), vehicle: water): 100 % of control | T/C (dose: 12.5 mg/kg/injection, schedule: Q01DX Z (ip), vehicle: water): 106 % of control | T/C (dose: 25.0 mg/kg/injection, schedule: Q01DX Z (ip), vehicle: water): 100 % of control | T/C (dose: 50.0 mg/kg/injection, schedule: Q01DX Z (ip), vehicle: water): 111 % of control

C[C@]12CCC(=O)C=C1CC[C@@H]1[C@@H]2C(=O)C[C@@]2(C)[C@H]1CC[C@]2(O)C(=O)CO
T/C (dose: 3.9 mg/kg/injection, schedule: Q01DX Z (sc), vehicle: steriod suspending solution): 111 % of control | T/C [3]: 101 % of control | T/C (dose: 250.0 mg/kg/injection, schedule: Q01DX Z (sc), vehicle: steriod suspending solution): 94 % of control

Cc1cc(N(CCCl)CCCl)ccc1N=Nc1ccccc1C(=O)O
T/C (dose: 0.12 mg/kg/injection, schedule: Q01DX Z (ip), vehicle: carboxymethylcellulose (CMC)): 90 % of control | T/C (dose: 0.23 mg/kg/injection, schedule: Q01DX Z (ip), vehicle: carboxymethylcellulose (CMC)): 106 % of control | T/C (dose: 0.47 mg/kg/injection, schedule: Q01DX Z (ip), vehicle: carboxymethylcellulose (CMC)): 106 % of control | T/C (dose: 0.94 mg/kg/injection, schedule: Q01DX Z (ip), vehicle: carboxymethylcellulose (CMC)): 94 % of control

O=C(Nc1ccc(C2=NCCN2)cc1)c1ccc(C(=O)Nc2ccc(C3=NCCN3)cc2)cc1
T/C [4]: 112 % of control | T/C [5]: 93 % of control | T/C (dose: 100.0 mg/kg/injection, schedule: Q01DX Z (ip), vehicle: carboxymethylcellulose (CMC)): 112 % of control | T/C (dose: 200.0 mg/kg/injection, schedule: Q01DX Z (ip), vehicle: carboxymethylcellulose (CMC)): 179 % of control

CC/C(=C(/CC)c1ccc(O)cc1)c1ccc(O)cc1
T/C (dose: 15.6 mg/kg/injection, schedule: Q01DX Z (sc), vehicle: steriod suspending solution): 91 % of control
